Assay: Peptide was evaluated for inhibition in competitive ELISA at a concentration of 1 mM using casein phosphopeptide alpha s1-casein (59-79) as the adsorbed antigen

Compound	inhibition [%]
H-QMEAE-OH	10
CC[C@H](C)[C@H](N)C(=O)N[C@H](C(=O)N1CCC[C@@H]1C(=O)N[C@@H](CC(N)=O)C(=O)N[C@@H](COP(=O)(Oc1ccccc1)Oc1ccccc1)C(=O)N[C@H](C(=O)N[C@@H](CCC(=O)O)C(=O)N[C@@H](CCC(=O)O)C(=O)NC)C(C)C)C(C)C	60.3
CC[C@H](C)[C@H](N)C(=O)N[C@H](C(=O)N1CCC[C@@H]1C(=O)N[C@@H](CC(N)=O)C(=O)N[C@@H](CO)C(=O)N[C@H](C(=O)N[C@@H](CCC(=O)O)C(=O)N[C@@H](CCC(=O)O)C(=O)NC)C(C)C)C(C)C	12
CC[C@H](C)[C@H](NC(=O)[C@H](CCC(=O)O)NC(=O)[C@@H](N)CCC(=O)O)C(=O)N[C@H](C(=O)N1CCC[C@@H]1C(=O)N[C@@H](CC(N)=O)C(=O)O)C(C)C	10.8
CC[C@H](C)[C@H](NC(=O)[C@H](COP(=O)(Oc1ccccc1)Oc1ccccc1)NC(=O)[C@H](CCC(=O)O)NC(=O)[C@H](C)NC(=O)[C@@H](N)CCC(=O)O)C(=O)NC	10.9
CC[C@H](C)[C@H](NC(=O)[C@H](COP(=O)(Oc1ccccc1)Oc1ccccc1)NC(=O)[C@H](CCC(=O)O)NC(C)=O)C(=O)N[C@@H](COP(=O)(Oc1ccccc1)Oc1ccccc1)C(=O)N[C@@H](COP(=O)(Oc1ccccc1)Oc1ccccc1)C(=O)N[C@@H](COP(=O)(Oc1ccccc1)Oc1ccccc1)C(=O)N[C@@H](CCC(=O)O)C(=O)NC(CCC(=O)O)C(=O)NC (stereo partly specified)	20

From ChEMBL document CHEMBL1126460, “The use of synthetic phosphopeptides for epitope mapping of the s1-casein phosphopeptide segment 5979” (Bioorg Med Chem Lett, 1992)
